Test results published in PMC4494766 (Monatshefte Fur Chemie, 2011).
≈ marks a conversion by molar mass, not a printed value.

Key:
[1] = system: human non-small lung cancer cell line A549; experiment: MTT viability assay; assay type: cell-based; conditions: 120 h
[2] = system: M. tuberculosis H37Rv strain; experiment: Tuberculostatic activity, test-tube successive dilution in Youmans' medium; assay type: cell-based; conditions: Mycobacterium tuberculosis
[3] = system: M. tuberculosis wild-type strain sp. 192 fully sensitive; experiment: as above; assay type: cell-based; conditions: Mycobacterium tuberculosis
Kirchberg = experiment: Widened tuberculostatic tests; assay type: cell-based, Mycobacterium
H37Rv = experiment: Widened tuberculostatic tests; assay type: cell-based, Mycobacterium
Smegmatis = experiment: Widened tuberculostatic tests; assay type: cell-based, Mycobacterium
Kansasii = experiment: Widened tuberculostatic tests; assay type: cell-based, Mycobacterium
Scrofulaceum = experiment: Widened tuberculostatic tests; assay type: cell-based, Mycobacterium
Fortuitum = experiment: Widened tuberculostatic tests; assay type: cell-based, Mycobacterium
An5 = experiment: Widened tuberculostatic tests; assay type: cell-based, Mycobacterium
Wells = experiment: Widened tuberculostatic tests; assay type: cell-based, Mycobacterium
Phlei = experiment: Widened tuberculostatic tests; assay type: cell-based, Mycobacterium
Intracellularum = experiment: Widened tuberculostatic tests; assay type: cell-based, Mycobacterium
[4] = system: A549 and HCT116 cell lines; experiment: MTT cytotoxicity, summary statements without cell line; assay type: cell-based; conditions: Homo sapiens, read-out: IC 50 (ca., cell line not stated)

| SMILES | IC50 [1] [µM] | MIC [2] [µg/mL] | MIC [3] [µg/mL] | MIC (Kirchberg) [μg cm^−3] | MIC (H37Rv) [μg cm^−3] | MIC (Smegmatis) [μg cm^−3] | MIC (Kansasii) [μg cm^−3] | MIC (Scrofulaceum) [μg cm^−3] | MIC (Fortuitum) [μg cm^−3] | MIC (An5) [μg cm^−3] | MIC (Wells) [μg cm^−3] | MIC (Phlei) [μg cm^−3] | MIC (Intracellularum) [μg cm^−3] | IC50 [4] [µM] |
| --- | --- | --- | --- | --- | --- | --- | --- | --- | --- | --- | --- | --- | --- | --- |
| N.N.[Cl][Pt][Cl] [Cis-Pt, Cisplatin] | 0.63 ± 0.018 |  |  |  |  |  |  |  |  |  |  |  |  |  |
| CSC(=NNC(=O)c1ccccc1Cl)SC [Compound 2, Dimethyl 2-chlorobenzoylcarbonohydrazonodithioate] |  | 25 (≈ 91 µM) | 25 (≈ 91 µM) |  |  |  |  |  |  |  |  |  |  |  |
| CSC(=NNC(=O)c1ccc(Cl)cc1)SC [Compound 3, Dimethyl 4-chlorobenzoylcarbonohydrazonodithioate] |  | 6.2 (≈ 22.6 µM) | 12.5 (≈ 45.5 µM) | 25 | 12.5 | 100 | 25 | 100 | 100 | 12.5 | 12.5 | 100 | 50 |  |
| CSC(=NNC(=O)c1ccc(Cl)cc1Cl)SC [Compound 4, Dimethyl 2,4-dichlorobenzoylcarbonohydrazonodithioate] |  | 6.2 (≈ 20 µM) | 6.2 (≈ 20 µM) |  | 6.2 |  | 25 | 25 |  | 6.2 | 12.5 |  |  |  |
| CSC(=NNC(=O)c1ccc(Cl)c(Cl)c1)SC [Compound 5, Dimethyl 3,4-dichlorobenzoylcarbonohydrazonodithioate] |  | 6.2 (≈ 20 µM) | 3.1 (≈ 10 µM) | 12.5 | 6.2 | 100 | 6.2 | 25 | 100 | 12.5 | 6.2 | 100 | 100 | ~30 |
| CSC(=NNC(=O)c1ccccc1[N+](=O)[O-])SC [Compound 6, Dimethyl 2-nitrobenzoylcarbonohydrazonodithioate] |  | 25 (≈ 87.6 µM) | 50 (≈ 175 µM) |  |  |  |  |  |  |  |  |  |  |  |
| CSC(=NNC(=O)c1ccccc1O)SC [Compound 8, Dimethyl 2-hydroxybenzoylcarbonohydrazonodithioate] |  |  | 25 (≈ 97.5 µM) |  |  |  |  |  |  |  |  |  |  |  |
| CSC(=NNC(=O)c1cccc(O)c1)SC [Compound 9, Dimethyl 3-hydroxybenzoylcarbonohydrazonodithioate] |  | 6.2 (≈ 24.2 µM) | 6.2 (≈ 24.2 µM) |  | 6.2 |  |  | 25 | 25 | 6.2 | 6.2 |  | 25 |  |
| CSC(=NNC(=O)c1ccc(O)cc1)SC [Compound 10, Dimethyl 4-hydroxybenzoylcarbonohydrazonodithioate] |  | 3.1 (≈ 12.1 µM) | 6.2 (≈ 24.2 µM) | 50 | 6.2 | 100 | 25 | 50 | 100 | 6.2 | 12.5 | 100 | 100 | ~100 |
| COc1ccc(C(=O)NN=C(SC)SC)cc1 [Compound 11, Dimethyl 4-methoxybenzoylcarbonohydrazonodithioate] |  | 25 (≈ 92.5 µM) | 25 (≈ 92.5 µM) |  |  |  |  |  |  |  |  |  |  |  |
| COc1cc(C(=O)NN=C(SC)SC)cc(OC)c1OC [Compound 12, Dimethyl 3,4,5-trimethoxybenzoylcarbonohydrazonodithioate] |  | 25 (≈ 75.7 µM) | 50 (≈ 151 µM) |  |  |  |  |  |  |  |  |  |  |  |
| COc1ccc(CC(=O)NN=C(SC)SC)cc1OC [Compound 13, Dimethyl 2-(3,4-dimethoxyphenyl)acetylcarbonohydrazonodithioate] |  | 25 (≈ 79.5 µM) | 50 (≈ 159 µM) |  |  |  |  |  |  |  |  |  |  |  |
| COc1cccc2c1C(=O)c1c(O)c3c(c(O)c1C2=O)C[C@@](O)(C(=O)CO)C[C@@H]3O[C@H]1C[C@H](N)[C@H](O)[C@H](C)O1 [Dox, doxotubicin] | 0.008 ± 0.0011 |  |  |  |  |  |  |  |  |  |  |  |  |  |
